Results as given in ChEMBL document CHEMBL5375961, “Design, Synthesis, and Biological Evaluation of Trisubstituted Piperazine Derivatives as Noncovalent Severe Acute Respiratory Syndrome Coronavirus 2 Main Protease Inhibitors with Improved Antiviral Activity and Favorable Druggability” (J Med Chem, 2023).

Legend:
[1] = target: Replicase polyprotein 1ab (Severe acute respiratory syndrome coronavirus 2, UniProt P0DTD1); experiment: Inhibition of SARS CoV-2 MPro using MCA-AVLQSGFR-Lys(Dnp)-Lys-NH2 as substrate preincubated for 10 mins followed by substrate addition measured for 10 mins by FRET assay
[2] = tested on: SARS-CoV-2; experiment: Antiviral activity against SARS-CoV-2 infected in African green monkey Vero E6 cells assessed as reduction in viral replication preincubated with compound followed by viral infection for 1 hr measured after 25 to 26 hrs by ELISA; assay type: functional, organism-based, Severe acute respiratory syndrome coronavirus 2
[3] = (§1) Cytotoxicity in African green monkey Vero E6 cells […] by Neutral red release assay; assay type: toxicity, cell-based, Vero C1008; details: chlorocebus sabaeus, Vero E6 cells
[4] = Half life in Sprague-Dawley rat at 2 mg/kg, iv measured for 0.033 to 24 hrs by LC-MS/MS analysis; assay type: ADME, organism-based; details: in vivo, time 0.033-24 hrs
[5] = Tmax in Sprague-Dawley rat at 2 mg/kg, iv measured for 0.033 to 24 hrs by LC-MS/MS analysis; assay type: ADME, organism-based; details: in vivo, time 0.033-24 hrs
[6] = Cmax in Sprague-Dawley rat at 2 mg/kg, iv measured for 0.033 to 24 hrs by LC-MS/MS analysis; assay type: ADME, organism-based; design: time upper 24 hrs, dose 2 mg/kg, time lower 0.033 hrs, route iv; details: in vivo
[7] = AUC (0 to t) in Sprague-Dawley rat at 2 mg/kg, iv measured for 0.033 to 24 hrs by LC-MS/MS analysis; assay type: ADME, organism-based; design: time lower 0.033 hrs, dose 2 mg/kg, time upper 24 hrs, route iv; details: in vivo
[8] = AUC (0 to infinity) in Sprague-Dawley rat at 2 mg/kg, iv measured for 0.033 to 24 hrs by LC-MS/MS analysis; assay type: ADME, organism-based; design: time 0.033-24 hrs, dose 2 mg/kg, route iv; details: in vivo
[9] = Volume of distribution in Sprague-Dawley rat at 2 mg/kg, iv measured for 0.033 to 24 hrs by LC-MS/MS analysis; assay type: ADME, organism-based; details: in vivo, time 0.033-24 hrs
[10] = Clearance in Sprague-Dawley rat at 2 mg/kg, iv measured for 0.033 to 24 hrs by LC-MS/MS analysis; assay type: ADME, organism-based; details: in vivo, time 0.033-24 hrs
[11] = Half life in Sprague-Dawley rat at 10 mg/kg, po measured for 0.083 to 24 hrs by LC-MS/MS analysis; assay type: ADME, organism-based; details: in vivo, time 0.083-24 hrs
[12] = Tmax in Sprague-Dawley rat at 10 mg/kg, po measured for 0.083 to 24 hrs by LC-MS/MS analysis; assay type: ADME, organism-based; details: in vivo, time 0.083-24 hrs
[13] = Cmax in Sprague-Dawley rat at 10 mg/kg, po measured for 0.083 to 24 hrs by LC-MS/MS analysis; assay type: ADME, organism-based; design: time lower 0.083 hrs, dose 10 mg/kg, time upper 24 hrs, route po; details: in vivo
[14] = AUC (0 to t) in Sprague-Dawley rat at 10 mg/kg, po measured for 0.083 to 24 hrs by LC-MS/MS analysis; assay type: ADME, organism-based; design: time 0.083-24 hrs, dose 10 mg/kg, route po; details: in vivo
[15] = AUC (0 to infinity) in Sprague-Dawley rat at 10 mg/kg, po measured for 0.083 to 24 hrs by LC-MS/MS analysis; assay type: ADME, organism-based; design: time 0.083-24 hrs, dose 10 mg/kg, route po; details: in vivo
[16] = Oral bioavailability in Sprague-Dawley rat at 10 mg/kg measured for 0.083 to 24 hrs by LC-MS/MS analysis; assay type: ADME, organism-based; details: in vivo, time 0.083-24 hrs
[17] = tested on: SARS-CoV-2; experiment: Antiviral activity against SARS-CoV-2 USA_WA1/2020 infected in African green monkey Vero E6 cells expressing hACE2 assessed as reduction in virus-induced cytopathic effect incubated for 3 days in presence of P-gp efflux inhibitor by Cell Titer-Glo assay; assay type: functional, organism-based; details: Severe acute respiratory syndrome coronavirus 2, USA_WA1/2020, Vero C1008, 72 h
[18] = tested on: Vero C1008; experiment: as §1; assay type: toxicity, cell-based; details: chlorocebus sabaeus, vero c1008, 600 h; 600 h
[19] = tested on: SARS-CoV-2; experiment: Antiviral activity against wild-type SARS CoV-2 infected in African green monkey Vero E6 cells assessed as reduction in viral plaque incubated for 3 days; assay type: functional, organism-based; details: Severe acute respiratory syndrome coronavirus 2, Vero C1008, 72 h
[20] = tested on: SARS-CoV-2; experiment: Antiviral activity against SARS CoV-2 Alpha infected in African green monkey Vero E6 cells assessed as reduction in viral plaque incubated for 3 days; assay type: functional, organism-based; details: Severe acute respiratory syndrome coronavirus 2, Alpha, Vero C1008, 72 h
[21] = tested on: SARS-CoV-2; experiment: Antiviral activity against SARS CoV-2 Delta infected in African green monkey Vero E6 cells assessed as reduction in viral plaque incubated for 3 days; assay type: functional, organism-based; details: Severe acute respiratory syndrome coronavirus 2, Delta, Vero C1008, 72 h
[22] = tested on: SARS-CoV-2; experiment: Antiviral activity against SARS CoV-2 Omicron […] infected in African green monkey Vero E6 cells assessed as reduction in viral plaque incubated for 3 days; assay type: functional, organism-based; details: Severe acute respiratory syndrome coronavirus 2, Vero C1008, 72 h
[23] = Severe acute respiratory syndrome coronavirus 2, Vero C1008

Compound	IC50 [1]	EC50 [2, 23]	CC50 at 600 h [3]	also measured
COc1ccncc1C(=O)N1CCN(c2ccc(Cl)c(Cl)c2)[C@H](C(=O)Nc2cc(F)c(OC)c(F)c2)C1	430 nM	3100 nM	–	–
O=C(NCc1cccs1)[C@@H]1CN(C(=O)c2cncc3cc[nH]c23)CCN1c1ccc(Cl)c(Cl)c1 [listing 1 of 2 here]	250 nM	540 nM	36000 nM	–
O=C(NCc1cccs1)[C@@H]1CN(C(=O)c2cnccc2Cl)CCN1c1ccc(Cl)c(Cl)c1	320 nM	3100 nM	> 100000 nM	–
O=C(NCc1cccs1)[C@@H]1CN(C(=O)c2cncc(F)c2)CCN1c1ccc(Cl)c(Cl)c1	350 nM	1500 nM	> 100000 nM	–
COc1cc(OC)c(NC(=O)[C@@H]2CN(C(=O)c3cnccc3OC)CCN2c2ccc(Cl)c(Cl)c2)cc1F	400 nM	1500 nM	79000 nM	–
CC(C)(C)[C@H](NC(=O)C(F)(F)F)C(=O)N1C[C@H]2[C@@H]([C@H]1C(=O)N[C@H](C#N)C[C@@H]1CCNC1=O)C2(C)C	–	–	> 100000 nM	–
COc1ccc(NC(=O)[C@@H]2CN(C(=O)c3cccnc3)CCN2c2ccc(Cl)c(Cl)c2)cc1	200 nM	740 nM	95000 nM	–
COc1ccncc1C(=O)N1CCN(c2ccc(Cl)c(Cl)c2)[C@H](C(=O)Nc2ccc(OC(F)F)cc2)C1	480 nM	–	–	–
COc1ccncc1C(=O)N1CCN(c2ccc(Cl)c(Cl)c2)[C@H](C(=O)NCc2cccs2)C1.Cl	170 nM	–	–	EC50 ([2]; vero e6): 530 nM; half-life [4]: 18.6 min; Tmax [5]: 1.8 min; Cmax [6]: 1240 ng/mL; AUC(0-t) [7]: 428 ng·h/mL; AUC(0-inf) [8]: 431 ng·h/mL; Vd [9]: 2.07 L/kg; clearance [10]: 77.4 mL/min/kg; half-life [11]: 86.4 min; Tmax [12]: 30 min; Cmax [13]: 81.6 ng/mL; AUC(0-t) [14]: 202 ng·h/mL; AUC(0-inf) [15]: 226 ng·h/mL; bioavailability [16]: 10.5%
O=C(NCc1cccs1)[C@@H]1CN(C(=O)c2cncc(O)c2)CCN1c1ccc(Cl)c(Cl)c1	440 nM	15000 nM	–	–
CN(Cc1cccs1)C(=O)[C@@H]1CN(C(=O)c2cccnc2)CCN1c1ccc(Cl)c(Cl)c1	1300 nM	–	–	–
O=C(NCc1cccs1)[C@@H]1CN(C(=O)c2cccnc2)CCN1c1ccc(Cl)c(Cl)c1	–	1300 nM	100000 nM	–
O=C(NCc1cccs1)[C@@H]1CN(C(=O)c2cc(=O)[nH]c3ccccc23)CCN1c1ccc(Cl)c(Cl)c1	270 nM	5400 nM	> 100000 nM	–
COc1cccc2[nH]c(C(=O)N[C@@H](CC(C)C)C(=O)N[C@H](C[C@@H]3CCNC3=O)C(=O)CO)cc12	–	–	–	EC50 [17]: 220 nM
O=C(NS(=O)(=O)c1cccs1)[C@@H]1CN(C(=O)c2cccnc2)CCN1c1ccc(Cl)c(Cl)c1	9500 nM	–	–	–
O=C(NCc1ccc(Br)s1)[C@@H]1CN(C(=O)c2cccnc2)CCN1c1ccc(Cl)c(Cl)c1	1800 nM	–	–	–
COc1ccncc1C(=O)N1CCN(c2ccc(Cl)c(Cl)c2)[C@H](C(=O)NCc2ccc(F)s2)C1 [listing 1 of 2 here]	410 nM	1500 nM	> 100000 nM	–
COc1ccncc1C(=O)N1CCN(c2ccc(Cl)c(Cl)c2)[C@H](C(=O)NCc2ccc(F)s2)C1 [listing 2 of 2 here]	350 nM	–	–	EC50 ([2]; vero e6): 1400 nM; CC50 [18]: 100000 nM
O=C(NCc1ccc(F)s1)[C@@H]1CN(C(=O)c2cccnc2)CCN1c1ccc(Cl)c(Cl)c1	400 nM	1500 nM	79000 nM	–
O=C(NCc1cccs1)[C@@H]1CN(C(=O)c2cncc3cc[nH]c23)CCN1c1ccc(Cl)c(Cl)c1 [listing 2 of 2 here]	210 nM	–	–	EC50 ([2]; vero e6): 530 nM; CC50 [18]: 42000 nM; EC50 [19]: 240 nM; EC50 [20]: 130 nM; EC50 [21]: 220 nM; EC50 [22]: 80 nM
COc1ccncc1C(=O)N1CCN(c2ccc(Cl)c(Cl)c2)[C@H](C(=O)NCc2cccs2)C1	–	780 nM	> 100000 nM	–
